A short description of series [1]: The drug is tested on Salmonella typhimurium strain: LT2 for biotransformation. The drug concentrations were measured before and after a 12-h incubation by liquid-chromatography-coupled mass spectrometry (LC–MS). The note with it: salmonella enterica subsp. enterica, 2 µM.
The target in series [2] is T1, Sialic acid-specific 9-O-acetylesterase (Bacteroides thetaiotaomicron, UniProt Q8A0D0).
T1 sequence (Q8A0D0 whole entry): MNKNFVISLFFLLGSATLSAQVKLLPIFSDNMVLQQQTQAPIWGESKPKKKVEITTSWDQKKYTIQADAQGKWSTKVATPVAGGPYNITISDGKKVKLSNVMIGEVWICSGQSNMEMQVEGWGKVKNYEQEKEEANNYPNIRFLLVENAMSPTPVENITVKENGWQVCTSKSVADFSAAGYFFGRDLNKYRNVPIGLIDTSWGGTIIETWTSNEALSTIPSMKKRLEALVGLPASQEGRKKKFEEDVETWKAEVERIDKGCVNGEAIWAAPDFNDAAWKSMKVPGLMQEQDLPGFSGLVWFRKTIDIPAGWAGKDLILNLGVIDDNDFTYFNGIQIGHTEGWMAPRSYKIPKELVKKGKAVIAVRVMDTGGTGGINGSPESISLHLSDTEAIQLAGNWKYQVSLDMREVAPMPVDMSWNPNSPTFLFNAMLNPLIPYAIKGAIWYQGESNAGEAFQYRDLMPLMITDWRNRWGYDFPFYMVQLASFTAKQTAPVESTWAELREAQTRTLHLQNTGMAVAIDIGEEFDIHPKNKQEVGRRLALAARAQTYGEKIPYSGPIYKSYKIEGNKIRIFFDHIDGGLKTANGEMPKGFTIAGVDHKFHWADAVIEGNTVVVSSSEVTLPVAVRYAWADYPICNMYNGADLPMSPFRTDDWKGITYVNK
Put plainly: (§1) The drug is tested on Bacteroides thetaiotaomicron strain: VPI-5482 for biotransformation. The drug concentrations were measured before and after a 12-h incubation by liquid-chromatography-coupled mass spectrometry (LC–MS). In kind it is ADME. Also noted: dose 2 uM. Particulars: 2 µM.

Another series has as its target T2, Lipase (Bacteroides thetaiotaomicron, UniProt Q8A3J3).
T2 sequence (Q8A3J3 whole entry): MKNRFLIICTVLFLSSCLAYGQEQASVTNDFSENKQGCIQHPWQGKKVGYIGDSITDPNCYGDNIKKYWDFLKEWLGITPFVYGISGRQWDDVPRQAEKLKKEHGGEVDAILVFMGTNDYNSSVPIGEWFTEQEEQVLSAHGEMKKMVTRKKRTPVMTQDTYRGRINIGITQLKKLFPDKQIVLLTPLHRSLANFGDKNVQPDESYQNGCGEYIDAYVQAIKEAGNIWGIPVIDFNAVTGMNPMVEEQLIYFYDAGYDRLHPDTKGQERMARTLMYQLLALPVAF
Described as §1. Also noted: dose 2 uM. The note with it: 2 µM. In kind it is ADME.

Series [3] concerns the target T3, Sialic acid-specific acetylesterase (Bacteroides thetaiotaomicron, UniProt Q8A331).
T3 sequence (Q8A331 whole entry): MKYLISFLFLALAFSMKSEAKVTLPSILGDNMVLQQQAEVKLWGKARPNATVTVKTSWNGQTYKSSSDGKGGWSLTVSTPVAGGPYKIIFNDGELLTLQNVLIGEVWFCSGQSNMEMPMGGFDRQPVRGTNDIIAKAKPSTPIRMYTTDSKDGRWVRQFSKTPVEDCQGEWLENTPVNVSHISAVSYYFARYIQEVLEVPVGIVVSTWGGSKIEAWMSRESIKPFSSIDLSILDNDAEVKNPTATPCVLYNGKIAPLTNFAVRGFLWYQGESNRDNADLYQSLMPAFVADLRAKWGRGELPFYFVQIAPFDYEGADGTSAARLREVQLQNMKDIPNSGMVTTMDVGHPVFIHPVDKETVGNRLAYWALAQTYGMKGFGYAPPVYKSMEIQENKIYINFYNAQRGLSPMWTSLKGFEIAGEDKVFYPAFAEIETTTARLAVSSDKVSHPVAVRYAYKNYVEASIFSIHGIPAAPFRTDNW
The description is as §1. It counts as ADME. Also noted: dose 2 uM. The note with it: 2 µM.

Series [4] can be described thus: The drug is tested on the gut metagenome community of MV02 with ENA study accession number: PRJEB31790 and ENA sample accession number: SAMEA5537483 for biotransformation. The drug concentrations were measured over 9 timepoints collected between 0 and 24 hours of incubation by liquid-chromatography-coupled mass spectrometry (LC–MS). The note with it: 2 µM. In kind it is ADME. Also noted: dose 2 uM, timepoint 0, 1, 2, 4, 6, 8, 12, 18, 24 hours.

The nature of series [5]: The drug is tested on the gut metagenome community of MV22 with ENA study accession number: PRJEB31790 and ENA sample accession number: SAMEA5537503 for biotransformation. The drug concentrations were measured over 9 timepoints collected between 0 and 24 hours of incubation by liquid-chromatography-coupled mass spectrometry (LC–MS). In kind it is ADME. Also noted: dose 2 uM, timepoint 0, 1, 2, 4, 6, 8, 12, 18, 24 hours. The note with it: 2 µM.

These results are taken from ChEMBL document CHEMBL5303573, “Mapping human microbiome drug metabolism by gut bacteria and their genes” (Nature, 2019).

As for `C#C[C@]1(OC(C)=O)CC[C@H]2[C@@H]3CCC4=C/C(=N/O)CC[C@@H]4[C@H]3CC[C@@]21CC` [NORGESTIMATE], in series [1], the “Bacterial Biotransformation” value was “Compound NOT metabolized”.

On to `COC(=O)Nc1nc2ccc(C(=O)c3ccccc3)cc2[nH]1` [MEBENDAZOLE], for which the “Bacterial Biotransformation” value in series [1] is recorded as “Compound NOT metabolized”.

As for `C#C[C@]1(O)CC[C@H]2[C@@H]3CCC4=CC(=O)CC[C@@H]4[C@H]3CC[C@@]21CC` [LEVONORGESTREL], the “Bacterial Biotransformation” value (in series [2]; at Lipase; in series [3]) was “Compound NOT metabolized” each time.

Regarding `CC(CCc1ccccc1)NCC(O)c1ccc(O)c(C(N)=O)c1` (stereo unspecified) [LABETALOL], in series [1], the “Bacterial Biotransformation” value is on record as “Compound NOT metabolized”.

Consider `N#Cc1ccc2c(c1)N(CCCN1CCC(O)CC1)c1ccccc1S2` [PERICIAZINE], for which the “Bacterial Biotransformation” value (in series [2]; on Lipase; in series [3]) was “Compound NOT metabolized” each time.

As to `CC(=O)OCC(CCn1cnc2cnc(N)nc21)COC(C)=O` [FAMCICLOVIR], the “Bacterial Biotransformation” value in series [2] is listed as “Compound metabolized”; at Lipase, “Compound NOT metabolized”; in series [3], “Compound metabolized”; in series [4], “Compound metabolized”; in series [5], “Compound metabolized”.

Consider `COc1ccc([C@@H]2Sc3ccccc3N(CCN(C)C)C(=O)[C@@H]2OC(C)=O)cc1` [DILTIAZEM], for which the “Bacterial Biotransformation” value (in series [2]; on Lipase; in series [3]; in series [4]; in series [5]) was “Compound NOT metabolized” throughout.

Regarding `COc1ccc2cc([C@H](C)C(=O)O)ccc2c1` [NAPROXEN], the “Bacterial Biotransformation” value in series [1] is on record as “Compound NOT metabolized”.

Take `CN1[C@@H]2CC[C@H]1C[C@@H](OC(=O)C(CO)c1ccccc1)C2` (stereo partly specified) [ATROPINE]: the “Bacterial Biotransformation” value in series [1] was “Compound NOT metabolized”.

Regarding `C#C[C@]1(OC(C)=O)CC[C@H]2[C@@H]3CCC4=CC(=O)CC[C@@H]4[C@H]3CC[C@@]21C` [NORETHINDRONE ACETATE], the “Bacterial Biotransformation” value in series [2] was “Compound NOT metabolized”; at Lipase, “Compound NOT metabolized”; in series [3] it was “Compound NOT metabolized”; in series [4], “Compound metabolized”; in series [5], “Compound metabolized”.
